Source: patent US9464084B2, “P2X7 modulators” (Janssen Pharmaceutica NV, priority 2013, dated 2016)

Columns and labels:
[1] = target: T1, P2X7 (Homo sapiens (Human), UniProt Q99572); test: Radioligand binding, tritiated A-804598, human P2X7-1321N1 cell membranes; details: 1 hour at 4° C.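 Also: ki obtained from the binding IC50 after correction for tracer concentration and tracer affinity.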
Description: On the day of the experiment, cell membrane preparations were made according to standard published methods. […] The assay was terminated by filtration (GF/B filters pre-soaked with 0.3% PEI) and washed with washing buffer (Tris-HCl 50 mM). The IC50 generated in the binding assay was corrected for tracer concentration and affinity of the tracer to derive at the affinity (Ki) of the test compounds.

[2] = target: T1, P2X7; test: P2X7 antagonism in human PBMCs (LPS + Bz-ATP induced IL-1β release, ELISA); assay type: cell-based; details: LPS 30 ng/ml, Bz-ATP 0.5 mM; for PBMC 10 μM (% control): compound 10 μM; for PBMC 1 μM (% control): compound 1 μM;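 as to all read-outs here: PBMCs from donor human blood, with a further 1.5 h incubation of the cells in the assay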
[3] = target: T1, P2X7; test: Ca2+ flux (FLIPR) in 1321N1 cells expressing recombinant human P2X7 channel; assay type: cell-based; details: 250 μM BzATP;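 also: Calcium-4 dye-loaded cells exposed to compound for 30 min before agonist addition, fluorescence change read 180 s after agonist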
Description: (§1) Cells were seeded at a density of 25000 cells/well (96-well clear bottom black walled plates) in 100 μl volume/well. On the day of the experiment, cell plates were washed with assay buffer, containing (in mM): 130 NaCl, 2 KCl, 1 CaCl2, 1 MgCl2, 10 HEPES, 5 glucose; pH 7.40 and 300 mOs. After the wash, cells were loaded with the Calcium-4 dye (Molecular Device) and incubated in the dark for 60 minutes. Test compounds were prepared at 250× the test concentration in neat DMSO. Intermediate 96-well compound plates were prepared by transferring 1.2 μL of the compound into 300 μL of assay buffer. A further 3× dilution occurred when transferring 50 μL/well of the compound plate to 100 μL/well in the cell plate. Cells were incubated with test compounds and dye for 30 minutes. […] The fluorescence change was measured 180 seconds after adding the agonist.

[4] = target: rat P2X7 (Rattus norvegicus (Rat), UniProt Q64663); test: Ca2+ flux (FLIPR) in 1321N1 cells expressing recombinant rat P2X7 channel; assay type: cell-based; details: 250 μM BzATP;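 also: Calcium-4 dye fluorescence change read 180 s after agonist addition, following 30 min cell preincubation with test compound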
Chain of rat P2X7 (Q64663 whole entry): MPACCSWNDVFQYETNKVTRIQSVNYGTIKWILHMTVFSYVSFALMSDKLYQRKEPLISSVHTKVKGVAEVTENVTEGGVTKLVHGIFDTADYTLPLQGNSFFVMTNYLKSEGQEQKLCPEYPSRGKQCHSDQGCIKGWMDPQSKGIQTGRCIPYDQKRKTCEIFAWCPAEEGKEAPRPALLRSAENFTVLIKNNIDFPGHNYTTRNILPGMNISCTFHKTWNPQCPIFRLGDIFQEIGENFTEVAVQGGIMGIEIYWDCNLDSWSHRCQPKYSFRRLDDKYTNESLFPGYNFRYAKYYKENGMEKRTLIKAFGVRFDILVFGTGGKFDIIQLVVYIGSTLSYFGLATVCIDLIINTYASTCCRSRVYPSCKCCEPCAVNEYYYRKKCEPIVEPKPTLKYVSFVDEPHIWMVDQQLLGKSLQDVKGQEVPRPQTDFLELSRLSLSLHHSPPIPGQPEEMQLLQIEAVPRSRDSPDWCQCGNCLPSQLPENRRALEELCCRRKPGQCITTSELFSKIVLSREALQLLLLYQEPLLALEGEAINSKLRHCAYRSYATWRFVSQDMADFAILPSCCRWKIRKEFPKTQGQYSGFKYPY
Description: as §1

T1 sequence (Q99572 whole entry): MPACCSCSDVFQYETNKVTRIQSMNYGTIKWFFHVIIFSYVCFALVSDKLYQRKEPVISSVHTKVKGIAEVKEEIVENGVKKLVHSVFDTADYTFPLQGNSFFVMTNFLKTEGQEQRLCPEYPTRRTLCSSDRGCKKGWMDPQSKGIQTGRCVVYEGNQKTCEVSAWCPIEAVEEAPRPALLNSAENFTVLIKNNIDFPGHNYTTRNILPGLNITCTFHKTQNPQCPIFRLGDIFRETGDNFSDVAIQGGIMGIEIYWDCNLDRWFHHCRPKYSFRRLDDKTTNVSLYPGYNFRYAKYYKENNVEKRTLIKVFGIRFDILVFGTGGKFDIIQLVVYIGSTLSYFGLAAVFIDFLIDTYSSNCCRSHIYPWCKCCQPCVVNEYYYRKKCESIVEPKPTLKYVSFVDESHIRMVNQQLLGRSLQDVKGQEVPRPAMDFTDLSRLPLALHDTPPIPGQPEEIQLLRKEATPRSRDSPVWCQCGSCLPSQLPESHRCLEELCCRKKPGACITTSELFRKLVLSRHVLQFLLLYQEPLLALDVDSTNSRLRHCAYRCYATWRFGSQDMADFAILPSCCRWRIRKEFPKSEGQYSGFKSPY

In the case of `Cc1cccc(-n2nnc3c2CCN(C(=O)c2cccc(C(F)(F)F)c2Cl)C3C)n1` (stereo not drawn) [Example 302, (2-chloro-3-(trifluoromethyl)phenyl)(4-methyl-1-(6-methylpyridin-2-yl)-6,7-dihydro-1H-[1,2,3]triazolo[4,5-c]pyridin-5(4H)-yl)methanone], the Ki [1] is reported as 31.6 nM, the “PBMC 10 μM (% control)” value [2] is reported as −2.8 % control and the IC50 [3] is reported as 11.6 nM. The IC50 [4] was 14.3 nM.
`Cc1c(C(=O)N2CCc3c(nnn3-c3ccccn3)C2)ccc(F)c1F` [Example 132, (3,4-Difluoro-2-methylphenyl)(1-(pyridin-2-yl)-6,7-dihydro-1H-[1,2,3]triazolo-[4,5-c]pyridin-5(4H)-yl)methanone] was tested, and the Ki [1] was 50.1 nM, the “PBMC 10 μM (% control)” value [2] was 3.8 % control and the IC50 [3] was 78.3 nM. The IC50 [4] was 4430 nM.
In the case of `CCc1nc2c(n1-c1ccccc1)CCN(C(=O)c1cccc(Cl)c1Cl)C2` [Example 332, (2,3-dichlorophenyl)(2-ethyl-1-phenyl-6,7-dihydro-1H-imidazo[4,5-c]pyridin-5(4H)-yl)methanone], the Ki [1] is reported as 631 nM, the “PBMC 10 μM (% control)” value [2] is reported as −9.5 % control and the IC50 [3] is reported as 217 nM. It also gave an IC50 [4] of 3720 nM.
`O=C(c1cccc(C(F)(F)F)c1Cl)N1CCc2[nH]nnc2C1c1ccccc1` (stereo not drawn) [Example 78, 5-{[2-Chloro-3-(trifluoromethyl)phenyl]carbonyl}-4-phenyl-4,5,6,7-tetrahydro-1H-[1,2,3]triazolo[4,5-c]pyridine] was tested, and the Ki [1] was 100 nM, the “PBMC 1 μM (% control)” value [2] was 57.7 % control and the IC50 [3] was 63.1 nM. The IC50 [4] was 501 nM.
With `O=C(c1cccc(C(F)(F)F)c1F)N1CCc2c(ncn2-c2ccn[nH]2)C1` [Example 59, 5-{[2-Fluoro-3-(trifluoromethyl)phenyl]carbonyl}-1-(1H-pyrazol-5-yl)-4,5,6,7-tetrahydro-1H-imidazo[4,5-c]pyridine] the Ki [1] was 501 nM, the “PBMC 10 μM (% control)” value [2] was 10.2 % control and the IC50 [3] was 378 nM. It also gave an IC50 [4] of 527 nM.
In the case of `CC1CN(C(=O)c2cccc(C(F)(F)F)c2Cl)Cc2nnn(-c3ccccc3)c21` (stereo not drawn) [Example 245, (2-Chloro-3-(trifluoromethyl)phenyl)(7-methyl-1-phenyl-6,7-dihydro-1H-[1,2,3]triazolo[4,5-c]pyridin-5(4H)-yl)methanone], the Ki [1] is reported as 100 nM, the “PBMC 10 μM (% control)” value [2] is reported as −7.3 % control and the IC50 [3] is reported as 161 nM. For the same compound, the IC50 [4] was 2070 nM.
`O=C(c1cccc(C(F)(F)F)c1Cl)N1CCc2c(-c3cncc(F)c3)n[nH]c2C1` [Example 95, 6-{[2-Chloro-3-(trifluoromethyl)phenyl]carbonyl}-3-(5-fluoropyridin-3-yl)-4,5,6,7-tetrahydro-2H-pyrazolo[3,4-c]pyridine] was tested, and the Ki [1] was 316 nM, the “PBMC 10 μM (% control)” value [2] was 14.4 % control and the IC50 [3] was 204 nM. For the same compound, the IC50 [4] was over 10000 nM.
For `CC1c2nnn(-c3cnccn3)c2C=CN1C(=O)c1cccc(C(F)(F)F)c1Cl` (stereo not drawn) [Example 72, 5-{[2-Chloro-3-(trifluoromethyl)phenyl]carbonyl}-4-methyl-1-pyrazin-2-yl-4,5-dihydro-1H-[1,2,3]triazolo[4,5-c]pyridine], the Ki [1] was 29.5 nM, the “PBMC 1 μM (% control)” value [2] was −5.7 % control and the IC50 [3] was 4.2 nM. It also gave an IC50 [4] of 169 nM.
`O=C(c1cccc(C(F)(F)F)c1Cl)N1CCc2c(-c3ccc(F)cn3)n[nH]c2C1` [Example 94, 6-{[2-Chloro-3-(trifluoromethyl)phenyl]carbonyl}-3-(5-fluoropyridin-2-yl)-4,5,6,7-tetrahydro-2H-pyrazolo[3,4-c]pyridine] was tested, and the Ki [1] was 31.6 nM, the “PBMC 10 μM (% control)” value [2] was 10.8 % control and the IC50 [3] was 12.4 nM. The IC50 [4] was 123 nM.
In the case of `Cc1ccnc(-n2nnc3c2CCN(C(=O)c2cccc(C(F)(F)F)c2Cl)C3C)n1` (stereo not drawn) [Example 252, (2-Chloro-3-(trifluoromethyl)phenyl)(4-methyl-1-(4-methylpyrimidin-2-yl)-6,7-dihydro-1H-[1,2,3]triazolo[4,5-c]pyridin-5(4H)-yl)methanone], the Ki [1] is reported as 28.2 nM, the “PBMC 10 μM (% control)” value [2] is reported as −0.8 % control and the IC50 [3] is reported as 18.8 nM. For the same compound, the IC50 [4] was 22.3 nM.
`C[C@H]1c2nnn(-c3cncnc3)c2CCN1C(=O)c1cccc(C(F)(F)F)c1Cl` [Example 333, (S)-(2-chloro-3-(trifluoromethyl)phenyl)(4-methyl-1-(pyrimidin-5-yl)-6,7-dihydro-1H-[1,2,3]triazolo[4,5-c]pyridin-5(4H)-yl)methanone] was tested, and the Ki [1] was 63.1 nM, the “PBMC 10 μM (% control)” value [2] was 6.9 % control and the IC50 [3] was 101 nM. For the same compound, the IC50 [4] was over 10000 nM.
With `Cn1nc2c(c1-c1cncnc1)CCN(C(=O)c1cccc(C(F)(F)F)c1Cl)C2` [Example 113, 6-{[2-Chloro-3-(trifluoromethyl)phenyl]carbonyl}-2-methyl-3-pyrimidin-5-yl-4,5,6,7-tetrahydro-2H-pyrazolo[3,4-c]pyridine] the Ki [1] was 398 nM, the “PBMC 10 μM (% control)” value [2] was 42.6 % control and the IC50 [3] was 855 nM. For the same compound, the IC50 [4] was over 10000 nM.
`CC1c2nnn(-c3cnccn3)c2CCN1C(=O)c1cccc(C(F)(F)F)c1F` (stereo not drawn) [Example 273, (2-fluoro-3-(trifluoromethyl)phenyl)(4-methyl-1-(pyrazin-2-yl)-6,7-dihydro-1H-[1,2,3]triazolo[4,5-c]pyridin-5(4H)-yl)methanone] was tested, and the Ki [1] was 18.2 nM, the “PBMC 10 μM (% control)” value [2] was −2.1 % control and the IC50 [3] was 7.6 nM. For the same compound, the IC50 [4] was 83.2 nM.
For `Cc1ccnc(-n2nnc3c2CCN(C(=O)c2cccc(Cl)c2Cl)C3C)n1` (stereo not drawn) [Example 225, (2,3-dichlorophenyl)(4-methyl-1-(4-methylpyrimidin-2-yl)-6,7-dihydro-1H-[1,2,3]triazolo[4,5-c]pyridin-5(4H)-yl)methanone], the Ki [1] was 9.1 nM, the “PBMC 10 μM (% control)” value [2] was −1.0 % control and the IC50 [3] was 6.2 nM. For the same compound, the IC50 [4] was 42.3 nM.
In the case of `O=C(c1cccc(C(F)(F)F)c1Cl)N1CCc2c(-c3cnccn3)n[nH]c2C1` [Example 97, 6-{[2-Chloro-3-(trifluoromethyl)phenyl]carbonyl}-3-pyrazin-2-yl-4,5,6,7-tetrahydro-2H-pyrazolo[3,4-c]pyridine], the Ki [1] is reported as 20 nM, the “PBMC 10 μM (% control)” value [2] is reported as 12.7 % control and the IC50 [3] is reported as 4.5 nM. The IC50 [4] was 2290 nM.
With `Cc1cc(C)nc(-n2nnc3c2CCN(C(=O)c2cccc(C(F)(F)F)c2Cl)C3C)c1` (stereo not drawn) [Example 300, (2-chloro-3-(trifluoromethyl)phenyl)(1-(4,6-dimethylpyridin-2-yl)-4-methyl-6,7-dihydro-1H-[1,2,3]triazolo[4,5-c]pyridin-5(4H)-yl)methanone] the Ki [1] was 398 nM, the “PBMC 10 μM (% control)” value [2] was −1.8 % control and the IC50 [3] was 171 nM. The IC50 [4] was 20200 nM.
`Cc1cncc(-n2nnc3c2CCN(C(=O)c2cccc(C(F)(F)F)c2Cl)C3C)n1` (stereo not drawn) [Example 251, (2-Chloro-3-(trifluoromethyl)phenyl)(4-methyl-1-(6-methylpyrazin-2-yl)-6,7-dihydro-1H-[1,2,3]triazolo[4,5-c]pyridin-5(4H)-yl)methanone] was tested, and the Ki [1] was 144 nM, the “PBMC 10 μM (% control)” value [2] was 11.6 % control and the IC50 [3] was 124 nM. The IC50 [4] was 9110 nM.
For `C[C@H]1c2nnn(-c3cccc(F)n3)c2CCN1C(=O)c1cccc(C(F)(F)F)c1Cl` (single isomer, unassigned) [Example 147, (S*)-(2-Chloro-3-(trifluoromethyl)phenyl)(1-(6-fluoropyridin-2-yl)-4-methyl-6,7-dihydro-1H-[1,2,3]triazolo[4,5-c]pyridin-5(4H)-yl)methanone], the Ki [1] was 39.8 nM, the “PBMC 10 μM (% control)” value [2] was −8.9 % control and the IC50 [3] was 11.3 nM. It also gave an IC50 [4] of 507 nM.
With `CC1c2nnn(-c3ccc(F)cc3)c2CCN1C(=O)c1cccc(C(F)(F)F)c1Cl` (stereo not drawn) [Example 83, 5-{[2-Chloro-3-(trifluoromethyl)phenyl]carbonyl}-1-(4-fluorophenyl)-4-methyl-4,5,6,7-tetrahydro-1H-[1,2,3]triazolo[4,5-c]pyridine] the Ki [1] was 158 nM, the “PBMC 10 μM (% control)” value [2] was 4.5 % control and the IC50 [3] was 16.9 nM. It also gave an IC50 [4] of 397 nM.
In the case of `C[C@H]1Cc2c(nnn2-c2ncccn2)CN1C(=O)c1cccc(C(F)(F)F)c1Cl` (single isomer, unassigned) [Example 222, (6S*)-5-{[2-Chloro-3-(trifluoromethyl)phenyl]carbonyl}-6-methyl-1-pyrimidin-2-yl-4,5,6,7-tetrahydro-1H-[1,2,3]triazolo[4,5-c]pyridine], the Ki [1] is reported as 25.1 nM, the “PBMC 10 μM (% control)” value [2] is reported as 11.8 % control and the IC50 [3] is reported as 1.1 nM. For the same compound, the IC50 [4] was 1 nM.
`CC1c2nnn(-c3ncccc3F)c2C=CN1C(=O)c1cccc(C(F)(F)F)c1Cl` (stereo not drawn) [Example 82, 5-{[2-Chloro-3-(trifluoromethyl)phenyl]carbonyl}-1-(3-fluoropyridin-2-yl)-4-methyl-4,5-dihydro-1H-[1,2,3]triazolo[4,5-c]pyridine] was tested, and the Ki [1] was 57.5 nM, the “PBMC 10 μM (% control)” value [2] was 7.9 % control and the IC50 [3] was 17.3 nM. The IC50 [4] was 154 nM.
In the case of `O=C(c1cccc(C(F)(F)F)c1Cl)N1CCc2c(-c3cccnc3)n[nH]c2C1` [Example 96, 6-{[2-Chloro-3-(trifluoromethyl)phenyl]carbonyl}-3-pyridin-3-yl-4,5,6,7-tetrahydro-2H-pyrazolo[3,4-c]pyridine], the Ki [1] is reported as 14.8 nM, the “PBMC 10 μM (% control)” value [2] is reported as 3.6 % control and the IC50 [3] is reported as 2.5 nM. For the same compound, the IC50 [4] was 179 nM.
In the case of `CC1c2nnn(-c3cc[nH]n3)c2C=CN1C(=O)c1cccc(C(F)(F)F)c1Cl` (stereo not drawn) [Example 86, 5-{[2-Chloro-3-(trifluoromethyl)phenyl]carbonyl}-4-methyl-1-(1H-pyrazol-3-yl)-4,5-dihydro-1H-[1,2,3]triazolo[4,5-c]pyridine], the Ki [1] is reported as 39.8 nM, the “PBMC 10 μM (% control)” value [2] is reported as 13.0 % control and the IC50 [3] is reported as 12.9 nM. For the same compound, the IC50 [4] was 136 nM.
For `O=C(c1cccc(Cl)c1Cl)N1CCc2c(ncn2-c2ccccn2)C1` [Example 4, (2,3-Dichlorophenyl)(1-(pyridin-2-yl)-6,7-dihydro-1H-imidazo[4,5-c]pyridin-5(4H)-yl)methanone], the Ki [1] was 25.1 nM, the “PBMC 10 μM (% control)” value [2] was −3.7 % control and the IC50 [3] was 46.5 nM. The IC50 [4] was 2570 nM.
